Assay results as given in patent US20240217951A1, “PCSK9 INHIBITORS AND METHODS OF USE THEREOF” (AstraZeneca AB, priority 2022, published 2024).

How the values were obtained:
human PCSK9 = target: T1, human PCSK9 (Homo sapiens, UniProt Q8NBP7); experiment: Assay 2 - Biophysical human PCSK9 assay (SPR, Biacore); assay type: binding; conditions: geometric mean; SPR at 30° C; read-out: Assay 2 (PCSK9 BIAcore DBA CR) GMean Kd
T1 construct: biotinylated human PCSK9 (31-692)-Avi-His6; His6 (C)
Method: Assay 2—Biophysical Human PCSK9 Assay
The SPR binding experiments were performed on a Biacore S200 optical biosensor unit at 30° C. A Series S Sensor Chip SA that is designed to bind biotinylated molecules for interaction analysis in Biacore systems was equilibrated at room temperature prior to use. The running buffer for protein tethering and subsequent ligand binding experiments was 10 mM HEPES pH 7.4, 150 mM NaCl, 0.05% (v/v) Tween 20 pH 7.4.
For the surface tethering of PCSK9, biotinylated human PCSK9 (31-692)-Avi-His6 at a concentration of 0.5 mg/mL was used. Prior to the surface tethering, the surface was exposed to a solution of 50 mM NaOH, 500 mM NaCl via 3 consecutive injections of this solution with a contact time of 60 s and a flowrate of 10 μL min^−1 to remove non-conjugated streptavidin. The PCSK9 protein was diluted to a concentration of 20 μg/mL using running buffer and injected with a contact time of 180-300 s and a flowrate of 10 μL min^−1 over a single flow channel (typically flow channel 2 or flow channel 4) with the aim to achieve protein capture levels of >5000 response units (RU). Remaining biotin binding sites were blocked via 2 consecutive injections of a 10 μM D-biotin solution in running buffer with a contact time of 60 s and a flowrate of 10 μL min^−1 over all flow-channels. Flow-channels 1 and 3 typically served as a reference surface throughout the subsequent binding experiments.
The binding experiments were all performed at a flow rate of 30 PL min^−1 and by employing the method of single-cycle kinetics. This approach involves the sequential injection of a compound concentration series without regeneration steps. A contact time between 90-150 s was selected, which was followed by a 40 min dissociation phase to allow for a proper estimation of the dissociation rate constant. Test compounds were delivered in DMSO at a concentration of 10 mM and a digital dispenser HP D300 was used to set up the compound concentration series using 6 concentrations. The tested concentrations have been 30, 100, 300, 1000, 3000 and 10000 nM. Prior to injecting any compound, the surfaces were equilibrated by injecting running buffer over them in three separate pulses. The data collection rate was set to 10 Hz.
The raw sensorgrams of the compound injections were first subjected to reference subtraction (subtracting the signal from flow channel 1 and/or 3 from the signal from channels 2 and/or 4 respectively) and then blank subtraction (subtracting the signal from injecting DMSO controls from the reference subtracted data). The resulting double-referenced sensorgrams were then fitted using a 1:1 binding interaction model using the manufactures software package to extract kinetic- and affinity data. Active compounds have been defined by creating a detectable binding signal at the highest compound concentration ([…]) of 3 RUs. Kinetic- and affinity data on active compounds are only provided for those compounds where the binding signal at the highest compound concentration ([…]) is 50% of the theoretical maximum binding signal for a 1:1 binding interaction (Rmax, typically between 15-20 RUs) in order to enable a proper fitting of the data.

[1] = target: GSK3β (Glycogen synthase kinase-3 beta) (Homo sapiens, UniProt P49841); experiment: Assay 6 - GSK3β assay (ThermoFisher Z-Lyte); assay type: biochemical; conditions: geometric mean; ATP Conc: 10 μM; read-out: Assay 6 (GSK3β FRET-Z-Lyte CR) GMean IC50 (μM) ATP Conc: 10
Sequence of GSK3β (Glycogen synthase kinase-3 beta) (P49841 whole entry): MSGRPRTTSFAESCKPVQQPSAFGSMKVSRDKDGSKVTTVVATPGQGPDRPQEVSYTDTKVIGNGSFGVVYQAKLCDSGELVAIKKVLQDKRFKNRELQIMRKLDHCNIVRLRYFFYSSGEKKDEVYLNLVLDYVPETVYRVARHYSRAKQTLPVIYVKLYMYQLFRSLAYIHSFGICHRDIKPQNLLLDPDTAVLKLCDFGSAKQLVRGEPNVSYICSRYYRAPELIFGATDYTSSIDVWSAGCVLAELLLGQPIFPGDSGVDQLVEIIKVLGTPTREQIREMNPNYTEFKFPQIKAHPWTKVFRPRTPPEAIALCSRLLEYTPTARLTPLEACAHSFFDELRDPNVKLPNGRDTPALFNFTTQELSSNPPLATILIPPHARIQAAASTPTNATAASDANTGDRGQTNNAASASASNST
Method in brief: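 Z-Lyte fluorescence kinase assay with 0.22-0.92 ng GSK3β and 2 μM Ser/Thr 09 peptide in 50 mM HEPES pH 7.5, 10 mM MgCl2, 1 mM EGTA, 0.01% BRIJ-35. Kinase reaction 60 min at room temperature, then 60 min development. 10-point 3-fold titration from 10 μM in 1% DMSO, fitted to a sigmoidal dose-response curve.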

T1 sequence (Q8NBP7 31-692): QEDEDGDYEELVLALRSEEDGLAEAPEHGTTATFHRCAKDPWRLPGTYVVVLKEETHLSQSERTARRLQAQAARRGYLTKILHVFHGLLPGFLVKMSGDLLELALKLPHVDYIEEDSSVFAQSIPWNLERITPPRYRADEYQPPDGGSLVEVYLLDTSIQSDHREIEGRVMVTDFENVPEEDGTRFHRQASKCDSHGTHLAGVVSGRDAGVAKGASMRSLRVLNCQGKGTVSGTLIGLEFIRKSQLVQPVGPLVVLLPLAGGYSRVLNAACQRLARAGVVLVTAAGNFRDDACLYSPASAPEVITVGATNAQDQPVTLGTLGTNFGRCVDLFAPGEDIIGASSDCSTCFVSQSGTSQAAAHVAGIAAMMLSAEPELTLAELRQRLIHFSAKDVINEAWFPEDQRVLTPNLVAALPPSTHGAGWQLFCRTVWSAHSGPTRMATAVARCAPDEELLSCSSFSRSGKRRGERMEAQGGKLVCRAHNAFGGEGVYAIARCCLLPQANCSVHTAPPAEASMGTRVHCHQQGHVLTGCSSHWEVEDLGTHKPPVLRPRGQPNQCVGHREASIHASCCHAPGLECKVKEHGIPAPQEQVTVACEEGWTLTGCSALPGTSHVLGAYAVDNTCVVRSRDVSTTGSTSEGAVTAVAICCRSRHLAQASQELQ

Row | Compound | Kd (human PCSK9) [nM] | IC50 [1] [µM]
1 | Cc1cnc(N[C@H]2CC[C@H](Nc3ccc(-n4cccc(C#N)c4=O)cn3)C2)cn1 [Example 103, 6′-(((1S,3S)-3-((5-Methylpyrazin-2-yl)amino)cyclopentyl)amino)-2-oxo-2H-[1,3′-bipyridine]-3-carbonitrile] | 4.7 | > 10
2 | COc1cccn(-c2ccc(N[C@H]3CC[C@H](Nc4cnc(C)cn4)C3)nc2)c1=O [Example 36, 3-Methoxy-6′-(((1S,3S)-3-((5-methylpyrazin-2-yl)amino)cyclopentyl)amino)-2H-[1,3′-bipyridin]-2-one] | 5.3 | > 10
3 | COc1cccn(-c2ccc(N[C@H]3CC[C@H](Nc4cnc(OC(F)F)cn4)C3)nc2)c1=O [Example 94, 6′-(((1S,3S)-3-((5-(Difluoromethoxy)pyrazin-2-yl)amino)cyclopentyl)amino)-3-methoxy-2H-[1,3′-bipyridin]-2-one] | 12 | > 10
4 | COc1cccn(-c2ccc(N[C@H]3CC[C@H](Nc4cnc(C5CC5)cn4)C3)nc2)c1=O [Example 106, 6′-(((1S,3S)-3-((5-Cyclopropylpyrazin-2-yl)amino)cyclopentyl)amino)-3-methoxy-2H-[1,3′-bipyridin]-2-one] | 3 | > 10
5 | COc1ccnn(-c2ccc(N[C@H]3CC[C@H](Nc4cnc(C)cn4)C3)nc2)c1=O [Example 226, 4-Methoxy-2-(6-(((1S,3S)-3-((5-methylpyrazin-2-yl)amino)cyclopentyl)amino)pyridin-3-yl)pyridazin-3 (2H)-one] | 5.6 | > 10
6 | Cc1cnc(N[C@H]2CC[C@H](Nc3ccc(-n4c(=O)n(C)c5ccccc54)cn3)C2)cn1 [Example 45, 1-Methyl-3-(6-(((1S,3S)-3-((5-methylpyrazin-2-yl)amino)cyclopentyl)amino)pyridin-3-yl)-1,3-dihydro-2H-benzo[d]imidazol-2-one] | 1.5 | > 10
7 | Cc1cccn(-c2ccc(N[C@H]3CC[C@H](Nc4cnc(Cl)cn4)C3)nc2)c1=O [Example 24, 6′-(((1S,3S)-3-((5-Chloropyrazin-2-yl)amino)cyclopentyl)amino)-3-methyl-2H-[1,3′-bipyridin]-2-one] | 4 | > 10
8 | O=c1ccc(-c2ccc(F)cc2)cn1-c1ccc(N[C@H]2CC[C@H](Nc3cnc(Cl)cn3)C2)nc1 [Example 32, 6′-(((1S,3S)-3-((5-Chloropyrazin-2-yl)amino)cyclopentyl)amino)-5-(4-fluorophenyl)-2H-[1,3′-bipyridin]-2-one] | 20 | > 10
9 | O=c1ccc2ccccc2n1-c1ccc(N[C@H]2CC[C@H](Nc3cnc(Cl)cn3)C2)nc1 [Example 35, 1-(6-(((1S,3S)-3-((5-Chloropyrazin-2-yl)amino)cyclopentyl)amino)pyridin-3-yl)quinolin-2 (1H)-one] | 3 | > 10
10 | Cc1cnc(N[C@H]2CC[C@H](Nc3ccc(-n4c(=O)[nH]c5ccccc54)cn3)C2)cn1 [Example 46, 1-(6-(((1S,3S)-3-((5-Methylpyrazin-2-yl)amino)cyclopentyl)amino)pyridin-3-yl)-1,3-dihydro-2H-benzo[d]imidazol-2-one] | 4.7 | > 10
11 | Cc1cnc(N[C@H]2CC[C@H](Nc3ccc(-n4cccc(C)c4=O)cn3)C2)cn1 [Example 44, 3-Methyl-6′-(((1S,3S)-3-((5-methylpyrazin-2-yl)amino)cyclopentyl)amino)-2H-[1,3′-bipyridin]-2-one] | 4.5 | > 10
12 | Cc1cnc(N[C@H]2CC[C@H](Nc3ccc(-n4cccc(Cl)c4=O)cn3)C2)cn1 [Example 47, 3-Chloro-6′-(((1S,3S)-3-((5-methylpyrazin-2-yl)amino)cyclopentyl)amino)-2H-[1,3′-bipyridin]-2-one] | 1.9 | > 10
13 | O=C(O)c1ccc(=O)n(-c2ccc(N[C@H]3CC[C@H](Nc4cnc(Cl)cn4)C3)nc2)c1 [Example 33, 6′-(((1S,3S)-3-((5-Chloropyrazin-2-yl)amino)cyclopentyl)amino)-2-oxo-2H-[1,3′-bipyridine]-5-carboxylic acid] | 13 | > 10
14 | Cc1cnc(N[C@H]2CC[C@H](Nc3ccc(-n4c(=O)n(C)c5cccnc54)cn3)C2)cn1 [Example 42, 1-Methyl-3-(6-(((1S,3S)-3-((5-methylpyrazin-2-yl)amino)cyclopentyl)amino)pyridin-3-yl)-1,3-dihydro-2H-imidazo[4,5-b]pyridin-2-one] | 5 | > 10
15 | Cn1c(=O)n(-c2ccc(N[C@H]3CC[C@H](Nc4cnc(OC(F)F)cn4)C3)nc2)c2ccccc21 [Example 82, 1-(6-(((1S,3S)-3-((5-(Difluoromethoxy)pyrazin-2-yl)amino)cyclopentyl)amino)pyridin-3-yl)-3-methyl-1,3-dihydro-2H-benzo[d]imidazol-2-one] | 4.1 | > 10
16 | Cc1cnc(N[C@H]2CC[C@H](Nc3ccc(-n4c(=O)ccc5cccnc54)cn3)C2)cn1 [Example 37, 1-(6-(((1S,3S)-3-((5-Methylpyrazin-2-yl)amino)cyclopentyl)amino)pyridin-3-yl)-1,8-naphthyridin-2(1 H)-one] | 5.5 | > 10
17 | Cn1c(=O)n(-c2ccc(N[C@H]3CC[C@H](Nc4cnc(Cl)cn4)C3)nc2)c2ccccc21 [Example 27, 1-(6-(((1S,3S)-3-((5-Chloropyrazin-2-yl)amino)cyclopentyl)amino)pyridin-3-yl)-3-methyl-1,3-dihydro-2H-benzo[d]imidazol-2-one] | 3.1 | > 10
